Laboratory results taken from patent US6355620B1, “C-2 modified erythromycin derivatives” (Abbott Laboratories, priority 1999, dated 2002).

Assays:
Test in all cases: In vitro antibacterial activity, agar dilution MIC
Assay type in all cases: cell-based
[1] = test system: Streptococcus pyogenes PIU 2548; conditions: code NN, BHI agar, 35-37° C., 20 to 24 hours, unit assumed
Description: (§1) Representative compounds of the present invention were assayed in vitro for antibacterial activity as follows: Twelve petri dishes containing successive aqueous dilutions of the test compound mixed with 10 mL of sterilized Brain Heart Infusion (BHI) agar (Difco 0418-01-5) were prepared. Each plate was inoculated with 1:100 (or 1:10 for slow-growing strains, such as Micrococcus and Streptococcus) dilutions of up to 32 different microorganisms, using a Steers replicator block. The inoculated plates were incubated at 35-37° C. for 20 to 24 hours. In addition, a control plate, using BHI agar containing no test compound, was prepared and incubated at the beginning and end of each test.
(§2) An additional plate containing a compound having known susceptibility patterns for the organisms being tested and belonging to the same antibiotic class as the test compound was also prepared and incubated as a further control, as well as to provide test-to-test comparability.
(§3) After incubation, each plate was visually inspected. The minimum inhibitory concentration (MIC) was defined as the lowest concentration of drug yielding no growth, a slight haze, or sparsely isolated colonies on the inoculum spot as compared to the growth control.

[2] = test system: Staphylococcus aureus ATCC 6538P; conditions: code AA, BHI agar, 35-37° C., 20 to 24 hours, unit assumed
Description: as §1, §2, §3

[3] = test system: Staphylococcus aureus NCTC 10649M; conditions: code EE, BHI agar, 35-37° C., 20 to 24 hours, unit assumed
Description: as §1, §2, §3

[4] = test system: Streptococcus Pneumonia GYR 1171; conditions: code YY, BHI agar, 35-37° C., 20 to 24 hours, unit assumed
Description: as §1, §2, §3

[5] = test system: Streptococcus pyogenes 930; conditions: code MM, BHI agar, 35-37° C., 20 to 24 hours, unit assumed
Description: as §1, §2, §3

Candida albicans CCH 442 = conditions: code TT, BHI agar, 35-37° C., 20 to 24 hours, unit assumed
Description: as §1, §2, §3

[6] = test system: Micrococcusluteus ATCC 4698; conditions: code PP, BHI agar, 35-37° C., 20 to 24 hours, unit assumed
Description: as §1, §2, §3

[7] = test system: Staphylococcus aureus CMX 553; conditions: code FF, BHI agar, 35-37° C., 20 to 24 hours, unit assumed
Description: as §1, §2, §3

[8] = test system: Enterococcusfaecium ATCC X043; conditions: code II, BHI agar, 35-37° C., 20 to 24 hours, unit assumed
Description: as §1, §2, §3

[9] = test system: Staphylococcus aureus 1775; conditions: code GG, BHI agar, 35-37° C., 20 to 24 hours, unit assumed
Description: as §1, §2, §3

[10] = test system: Streptococcus pyogenes EES61; conditions: code LL, BHI agar, 35-37° C., 20 to 24 hours, unit assumed
Description: as §1, §2, §3

[11] = test system: Haemophilislnfluenzae DILL AMP R; conditions: code WW, BHI agar, 35-37° C., 20 to 24 hours, unit assumed
Description: as §1, §2, §3

[12] = test system: Staphylococcus aureus A-5278; conditions: code CC, BHI agar, 35-37° C., 20 to 24 hours, unit assumed
Description: as §1, §2, §3

[13] = test system: Micrococcusluteus ATCC 9341; conditions: code OO, BHI agar, 35-37° C., 20 to 24 hours, unit assumed
Description: as §1, §2, §3

[14] = test system: Streptococcus Pneumonia 5649; conditions: code ZZA, BHI agar, 35-37° C., 20 to 24 hours, unit assumed
Description: as §1, §2, §3

[15] = test system: Nocardia Asteroides ATCC 99700; conditions: code VV, BHI agar, 35-37° C., 20 to 24 hours, unit assumed
Description: as §1, §2, §3

[16] = test system: Mycobacterium smegmatis ATCC 114; conditions: code UU, BHI agar, 35-37° C., 20 to 24 hours, unit assumed
Description: as §1, §2, §3

[17] = test system: Staphylococcus aureus CMX 642A; conditions: code DD, BHI agar, 35-37° C., 20 to 24 hours, unit assumed
Description: as §1, §2, §3

Escherichiacoli SS = conditions: code RR, BHI agar, 35-37° C., 20 to 24 hours, unit assumed
Description: as §1, §2, §3

Escherichiacoli DC-2 = conditions: code SS, BHI agar, 35-37° C., 20 to 24 hours, unit assumed
Description: as §1, §2, §3

[18] = test system: Staphylococcus aureus A-5177; conditions: code BB, BHI agar, 35-37° C., 20 to 24 hours, unit assumed
Description: as §1, §2, §3

[19] = test system: Streptococcus agalactiae CMX 508; conditions: code KK, BHI agar, 35-37° C., 20 to 24 hours, unit assumed
Description: as §1, §2, §3

[20] = test system: Staphylococcus epidermidis 3519; conditions: code HH, BHI agar, 35-37° C., 20 to 24 hours, unit assumed
Description: as §1, §2, §3

[21] = test system: Streptococcus Pneumonia ATCC 6303; conditions: code XX, BHI agar, 35-37° C., 20 to 24 hours, unit assumed
Description: as §1, §2, §3

Escherichiacoli JUHL = conditions: code QQ, BHI agar, 35-37° C., 20 to 24 hours, unit assumed
Description: as §1, §2, §3

[22] = test system: Streptococcus bovis A-5169; conditions: code JJ, BHI agar, 35-37° C., 20 to 24 hours, unit assumed
Description: as §1, §2, §3

[23] = test system: Streptococcus Pneumonia 5979; conditions: code ZZ, BHI agar, 35-37° C., 20 to 24 hours, unit assumed
Description: as §1, §2, §3

Structure (SMILES)	Antibacterial Activity (MIC) [1] [µg/mL]	Antibacterial Activity (MIC) [2] [µg/mL]	Antibacterial Activity (MIC) [3] [µg/mL]	Antibacterial Activity (MIC) [4] [µg/mL]	Antibacterial Activity (MIC) [5] [µg/mL]	Antibacterial Activity (MIC) (Candida albicans CCH 442) [µg/mL]	Antibacterial Activity (MIC) [6] [µg/mL]	Antibacterial Activity (MIC) [7] [µg/mL]	Antibacterial Activity (MIC) [8] [µg/mL]	Antibacterial Activity (MIC) [9] [µg/mL]	Antibacterial Activity (MIC) [10] [µg/mL]	Antibacterial Activity (MIC) [11] [µg/mL]	Antibacterial Activity (MIC) [12] [µg/mL]	Antibacterial Activity (MIC) [13] [µg/mL]	Antibacterial Activity (MIC) [14] [µg/mL]	Antibacterial Activity (MIC) [15] [µg/mL]	Antibacterial Activity (MIC) [16] [µg/mL]	Antibacterial Activity (MIC) [17] [µg/mL]	Antibacterial Activity (MIC) (Escherichiacoli SS) [µg/mL]	Antibacterial Activity (MIC) (Escherichiacoli DC-2) [µg/mL]	further results
C=CCC1(C)C(=O)OC(CC)C2(C)OC(=O)NC2C(C)C(=O)C(C)CC(C)(OCC=Cc2cnc3ccccc3c2)C(OC2OC(C)CC(N(C)C)C2O)C(C)C1=O (stereo not drawn) [Example 4, Compound of formula (II): R^a is —CH2CH═CH-(3-quinolinyl), R^b is H, Y and Z together are O, T is —NH—, R is —CH2CH═CH2]	0.78	0.78	0.78	0.25	12.5	> 100	0.78	0.39	0.2	> 100	0.1	16	> 100	0.1	2	0.1	3.1	0.78	3.1	> 100	Antibacterial Activity (MIC) [18]: 0.39 µg/mL; Antibacterial Activity (MIC) [19]: 0.2 µg/mL; Antibacterial Activity (MIC) [20]: 0.39 µg/mL; Antibacterial Activity (MIC) [21]: 0.25 µg/mL; Antibacterial Activity (MIC) (Escherichiacoli JUHL): > 100 µg/mL; Antibacterial Activity (MIC) [22]: 0.05 µg/mL; Antibacterial Activity (MIC) [23]: 64 µg/mL
CCC1OC(=O)C(C)(O)C(=O)C(C)C(OC2OC(C)CC(N(C)C)C2O)C(C)(OC)CC(C)C(=O)C(C)C2N(CCCCc3ccccc3)C(=O)OC12C (stereo not drawn) [Example 2, Compound of formula (II): R^a is CH3, R^b is H, Y and Z together are O, T is —N(W(R^g))—, W is —(CH2)p—, p is 4, R^g is phenyl, R is —OH]	0.39	1.56	1.56	0.25	25	100	0.78	1.56	0.39	100	0.1	64	100	0.39	1	3.1	3.1	3.1	6.2	> 100	Antibacterial Activity (MIC) [18]: 1.56 µg/mL; Antibacterial Activity (MIC) [19]: 0.2 µg/mL; Antibacterial Activity (MIC) [20]: 3.1 µg/mL; Antibacterial Activity (MIC) [21]: 0.5 µg/mL; Antibacterial Activity (MIC) (Escherichiacoli JUHL): > 100 µg/mL; Antibacterial Activity (MIC) [22]: 0.2 µg/mL; Antibacterial Activity (MIC) [23]: 32 µg/mL
CCC1OC(=O)C(C)(CC=Cc2ccccc2)C(=O)C(C)C(OC2OC(C)CC(N(C)C)C2O)C(C)(OC)CC(C)C(=O)C(C)C2NC(=O)OC12C (stereo not drawn) [Example 1, Compound of formula (II): R^a is CH3, R^b is H, Y and Z together are O, T is —NH—, R is —CH2CH═CH-(phenyl)]	12.5	25	50	4	50	100	6.2	50	25	100	12.5	> 128	100	3.1	16	25	25	25	50	> 100	Antibacterial Activity (MIC) [18]: 25 µg/mL; Antibacterial Activity (MIC) [19]: 12.5 µg/mL; Antibacterial Activity (MIC) [20]: 50 µg/mL; Antibacterial Activity (MIC) [21]: 8 µg/mL; Antibacterial Activity (MIC) (Escherichiacoli JUHL): > 100 µg/mL; Antibacterial Activity (MIC) [22]: 12.5 µg/mL; Antibacterial Activity (MIC) [23]: 64 µg/mL
